Experimental data from US6306422A, “Compositions and devices for controlled release of active ingredients” (priority 1998, dated 2001).
Structures can show the parent of a compound that is named as a salt.

Assays:
[1] = Swelling in solvents for drug loading and AHA loading of the hydrogel; format: physicochemical
Experimental: Six pieces of the MMA/AA (90/9) polymer were weighed in the dry state. Each piece was placed into 4 ml of a separate solvent. The solvents used were pH buffers with pH values of 4.0, 7.4, and 9.0, 90 v/v % ethanol, methanol, and 90 v/v % acetone at 37° C. […] A 16 w/w % solution of acetohydroxamic acid in 90% acetone was prepared.
Hydrogel pieces were weighed in the dry state. Six pieces weighing approximately the same were separated out for each respective pH buffer value. Each gel piece was individually placed into a test tube containing 3 ml of the 16% AHA acetone solution. The test tubes were capped and wrapped in parafilm to prevent evaporation of the solvent. The test tubes were placed into a 37° C. water bath for 48 hours. The hydrogel pieces were then removed from the AHA solution and placed in a vacuum oven at 60° C. for solvent evaporation and then at room temperature for a total drying time of 72 hours. The drug-loaded gels were then reweighed, and the total AHA content was calculated.
Absorbances for each of the solutions were measured at 515 nm on a Perkin-Elmer Lambda 3B UV/VIS Spectrophotometer. A calibration curve was calculated from the standard concentration solutions. The concentrations of the AHA were calculated from the absorbances and raised to the initial surface area of the gel matrix.

urease = target: T1, urease (Proteus mirabilis, UniProt P17086); assay: Bacteria/urease study: pH of artificial urine with Proteus mirabilis; format: cell-based; settings: 10^11 bacteria/ml
T1 construct: endogenous in cells; host or cells: living Proteus mirabilis (clinic isolate) in artificial urine
T1 sequence (P17086 whole entry): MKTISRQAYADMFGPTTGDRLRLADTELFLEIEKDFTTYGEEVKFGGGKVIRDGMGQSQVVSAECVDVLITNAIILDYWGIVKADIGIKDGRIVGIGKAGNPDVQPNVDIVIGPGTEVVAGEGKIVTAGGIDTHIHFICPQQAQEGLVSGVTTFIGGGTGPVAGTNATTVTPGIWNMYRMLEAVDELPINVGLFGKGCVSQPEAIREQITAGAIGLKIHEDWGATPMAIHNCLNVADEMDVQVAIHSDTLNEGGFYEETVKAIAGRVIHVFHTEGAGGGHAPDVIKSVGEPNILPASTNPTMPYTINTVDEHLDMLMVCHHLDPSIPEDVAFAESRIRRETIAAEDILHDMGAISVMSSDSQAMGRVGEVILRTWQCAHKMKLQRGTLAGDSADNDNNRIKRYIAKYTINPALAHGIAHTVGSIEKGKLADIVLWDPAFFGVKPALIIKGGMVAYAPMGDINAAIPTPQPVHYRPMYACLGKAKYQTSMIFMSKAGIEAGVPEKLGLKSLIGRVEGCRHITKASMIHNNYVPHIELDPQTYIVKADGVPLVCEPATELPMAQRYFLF
T1 sequence (P17088 whole entry, further chain): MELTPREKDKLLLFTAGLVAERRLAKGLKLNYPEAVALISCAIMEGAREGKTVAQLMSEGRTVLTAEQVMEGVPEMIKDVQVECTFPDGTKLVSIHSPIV
T1 sequence (P17087 whole entry, further chain): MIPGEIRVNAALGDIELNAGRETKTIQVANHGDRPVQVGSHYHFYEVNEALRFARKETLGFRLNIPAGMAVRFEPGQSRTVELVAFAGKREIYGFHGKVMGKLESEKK
Experimental: After mixing, the urine was filter-sterilized into a sterile container using a 0.2 μm pore size filtration system. A solution of this artificial urine containing 750 μg/ml of AHA was prepared by dissolving 0.0757 g of the AHA in 100 ml of the urine. This solution was then diluted in series to yield artificial urine with AHA concentrations of 375, 187.5, 75, and 7.5 μg/ml.
Fifty milliliters of these solutions were sterilized by filtering them through a syringe filter with 0.2 μm pore size into a sterile container.
Proteus mirabilis were harvested from the Surgery/Urology clinic at the University of Florida, Gainesville, Fla. These bacteria were cultured on a heart infusion agar (Difco Laboratories) for 48 hours at 37° C. Bacteria were aseptically harvested and suspended in a solution of artificial urine not containing any of the urease inhibitor. Dilutions of this suspension were made to 10,000, and a count of the bacteria was made on a microscopic counting grid. The initial concentration of bacteria was back-calculated by using the Petroff-Hauser formula shown in equation two. [formula]
For the urine solutions containing the urease inhibitor and two control solutions (one containing bacteria and the other without), a series of six test tubes was set up. […] The pH of each of the samples was measured initially and then at 2 hour intervals up to 12 hours. […]

[2] = cited from earlier work
bacteria = settings: cited from earlier work
[3] = cited from earlier work; remark: listed apart in the source
struvite encrustation = settings: cited from earlier work
[4] = cited from earlier work; remark: listed apart in the source
[5] = test system: Proteus sp. and other urease-producing organisms; settings: cited from earlier work
[6] = in vivo; cited from earlier work

## CC(=O)NO [AHA, acetohydroxamic acid]
[1]; in 90% acetone
  concentration near the saturation point: ~16 w/w %
[1]; pH 4.0, 7.4, 9.0 buffers, 90 v/v % ethanol, methanol, 90 v/v % acetone
  solubility of AHA in the chosen solutions: very soluble
urease; AHA 7.5-750 μg/ml, 37° C., up to 24 hours
  effect of AHA on the activity of urease (pH of artificial urine): resists pH increase for a longer time and experiences a smaller overall pH increase
urease; artificial urine
  concentration of AHA giving therapeutic benefit: 7.5 µg/mL
[2]
  pKa: 9.3
bacteria
  effect of the presence of AHA on methenamine: increases the antibacterial activity of the methenamine
[3]; human, in vivo
  absorption from the gastrointestinal tract: well absorbed
[3]; patients
  adverse effects limiting use: Coomb's hemolytic anemia, GI complaints, bone marrow depression, and teratogenicity

## O=C(O)CC(O)(CC(=O)O)C(=O)O [Sodium citrate]
Struvite encrustation
  prevention of struvite encrustation: shows potential

## [H]/N=C(\N/C(=N/[H])NCCCCCCNC(=N)NC(=N)Nc1ccc(Cl)cc1)Nc1ccc(Cl)cc1 [chlorhexidine]
[4]
  solubility in alcohols: highly soluble

## O=C(O)CNC(=O)c1ccccc1 [hippuric acid]
[4]
  solubility in alcohols: highly soluble

## Chondroitin sulfate
Struvite encrustation
  prevention of struvite encrustation: ineffective

## Gentamicin
[5]
  effectiveness against Proteus sp. and other urease-producing organisms: highly effective
[6]
  toxicity limiting plasma concentrations: systemic nephrotoxicity

## heparin sulfate
Struvite encrustation
  prevention of struvite encrustation: ineffective
